Source: US10882817B2, “Acetylsalicylic acid derivative crystal, its preparation method and use” (Zhejiang Yuejia Pharmaceuticals Co., Ltd, priority 2015, dated 2021)

Assay: Stability test of 2-(diethylamino)ethyl 2-acetoxybenzoate hydrochloride crystal
Format: physicochemical
Conditions: for pH value / Other related substances / Related substances 2-(diethylamino)ethyl-salicylate hydrochloride / Related substances Acetylsalicylic acid / Related substances Salicylic acid / Content: stored at 25° C.±2° C.; for pH value: 1.0 g sample in 50 mL water, filtrate; for Other related substances / Related substances 2-(diethylamino)ethyl-salicylate hydrochloride / Related substances Acetylsalicylic acid / Related substances Salicylic acid: HPLC; for Content: HPLC external standard method
Method: The 2-(diethylamino)ethyl 2-acetoxybenzoate hydrochloride crystals obtained in Example 1 is taken and placed under the conditions of 25° C.±2° C., and sampling is carried out at month 0, month 3, month 6, month 9, and month 12, respectively, followed by the detection of the pH value, related substances and their contents. In the process, the pH value is obtained by taking about 1.0 g of a sample, adding 50 mL of water, shaking for 10 minutes, filtration, taking 10 mL of a subsequent filtrate and detection with a pH meter; and the related substances and the contents are both detected by high performance liquid chromatography (an external standard method).

CCN(CC)CCOC(=O)c1ccccc1OC(C)=O.Cl [2-(diethylamino)ethyl 2-acetoxybenzoate hydrochloride]
stability (after having been stored at 25° C.±2° C. for 12 months): very good stability
pH value (Month 0): 4.82
Other related substances (Month 0): Not detected
Related substances 2-(diethylamino)ethyl-salicylate hydrochloride (Month 0): 0.58%
Related substances Acetylsalicylic acid (Month 0): 0.0059%
Related substances Salicylic acid (Month 0): Not detected
Content (Month 0): 99.58%
pH value (Month 3): 4.83
Other related substances (Month 3): Not detected
Related substances 2-(diethylamino)ethyl-salicylate hydrochloride (Month 3): 0.65%
Related substances Acetylsalicylic acid (Month 3): 0.0063%
Related substances Salicylic acid (Month 3): 0.00254%
Content (Month 3): 99.51%
pH value (Month 6): 4.81
Other related substances (Month 6): Not detected
Related substances 2-(diethylamino)ethyl-salicylate hydrochloride (Month 6): 0.58%
Related substances Acetylsalicylic acid (Month 6): 0.0070%
Related substances Salicylic acid (Month 6): 0.00101%
Content (Month 6): 99.59%
pH value (Month 9): 4.79
Other related substances (Month 9): Not detected
Related substances 2-(diethylamino)ethyl-salicylate hydrochloride (Month 9): 0.60%
Related substances Acetylsalicylic acid (Month 9): 0.0048%
Related substances Salicylic acid (Month 9): 0.00083%
Content (Month 9): 99.57%
pH value (Month 12): 4.83
Other related substances (Month 12): Not detected
Related substances 2-(diethylamino)ethyl-salicylate hydrochloride (Month 12): 0.62%
Related substances Acetylsalicylic acid (Month 12): 0.0053%
Related substances Salicylic acid (Month 12): 0.00103%
Content (Month 12): 99.58%
